In US7091238B1, “Thienylhydrazon with digitalis-like properties (positive inotropic effects)” (University of Maryland, priority 1999, dated 2006):

Legend:
rat thoracic aorta = settings: reported by Delpy and Gouville (1996); cited from earlier work
[1] = system: neuromuscular transmission; assay: Contractions of gastrocnemius muscle induced by stimulation of the sciatic nerve; type: in vivo; settings: rat gastrocnemius
Experimental: FIG. 30. Records of contractions induced by stimulation of the sciatic nerve of equilibrated rat gastrocnemius muscles and of arterial pressure. In control, contractions were induced by intravenous injection of DMSO ([…]). LASSBio-294 was administered in DMSO. Calibration: Horizontal, 1 cm=24 s; Vertical 2 g=100 mm Hg.
FIG. 31. Records of contractions of rat gastrocnemius muscles induced by stimulation of the sciatic nerve and of arterial pressure. For control, contraction was induced by intravenous injection of […] (0.04 ml). LASSBio-294 was administered in DMSO.

Structure (SMILES) | relaxant effect after removal of endothelium (rat thoracic aorta) | depression of muscle contraction (test of functionality of the model) [1]
CCCOc1ccc(NS(C)(=O)=O)cc1-c1nc2c(c(C)nn2C)c(=O)[nH]1 [DMPPO] | lost its effect | 
C=CC[N@@+]12CC[C@@]34c5ccccc5N5/C=C6/[C@H]7C[C@H]8[C@@]9(CC[N@@+]8(CC=C)C/C7=C/CO)c7ccccc7N(/C=C(/[C@@H](C[C@@H]31)/C(=C\CO)C2)[C@H]54)[C@@H]69.[Cl-].[Cl-] [alloferine, reference compound] |  | depression of muscle contraction
